Data from patent publication US8710091B2, “Imidazolidine-2,4-dione derivatives, and use thereof as a cancer drug” (Ipsen Pharma S.A.S., priority 2009, dated 2014).

What was measured:
Type in all cases: cell-based
LNCaP cells = assay: Antiproliferative activity on LNCaP in medium without steroids (WST-1); conditions: 144 h, 1 nM to 100 μM
Description: The anti-proliferative activity of the compounds of the present invention is determined on LNCaP in medium without steroids.
The maintenance of the LNCaP line is carried out under the usual conditions in RPMI, 10% of foetal calf serum, 2 mM of glutamine, 100 U/ml of penicillin, 0.1 mg/ml of streptomycin and 0.01M HEPES, 1 mM sodium pyruvate, 40% of D-glucose.
For the study under conditions without steroids, 24 hours before the seeding the culture medium of the cells is eliminated. The cells are washed with PBS, then incubated in the presence of RPMI medium without phenol red, 10% of foetal calf serum without steroids (treatment with carbon), 2 mM of glutamine, 100 U/ml of penicillin, 0.1 mg/ml of streptomycin and 0.01M HEPES, 1 mM of sodium pyruvate, 40% of D-glucose. • Seeding the plates:
The LNCaP line is seeded at 20,000 cells/well in 90 μl of RPMI medium with 10% foetal calf serum without steroids in 96-well plates coated with poly-D-lysine (Biocoat, Costar). • Treatment of the cells: 24 h after seeding, the cells are treated with 10 μl/well of compound diluted in the culture medium. Experiments showing the dose-effect of the compound are carried out on a scale of 1 nM to 100 μM. The concentrations used are the following: 1 nM/10/30/100/300/1000/3000/10,000/100,000 nM. Testosterone (SIGMA T1500) is used as a reference and tested at the same concentrations. The cells are incubated for 144 h at 37° C., 5% CO2. • Reading: On D6, 10 μL of cell proliferation reagent WST-1 (Roche ref 1644807) is added to each well. After incubation for 2 to 4 hours at 37° C., 5% CO2, the absorbance at 450 nm is measured by spectrophotometry (Envision, Perkin Elmer). • Results: The experiments are carried out in duplicate and the best compounds are tested twice. […] 3. Antiproliferative Activity on DU-145 in Complete Medium: […]

DU145 cells = assay: Antiproliferative activity on DU-145 in complete medium (WST-1); conditions: Homo sapiens, 144 h incubation, read-out: IC50 on the DU145 cells in culture (concentration inhibiting cell proliferation by 50%)
Description: The anti-proliferative activity of the compounds of the present invention is determined on DU-145 in complete medium.
Maintenance of the DU-145 line is carried out in DMEM, 10% of foetal calf serum, 2 mM of glutamine, 100 U/ml of penicillin, 0.1 mg/ml of streptomycin. • Seeding the plates: • The DU145 line is seeded at 400 or 800 cells/well in 90 μl of DMEM complete medium in 96-well plates (TPP). • Treatment of the cells: 24 h after the seeding, the cells are treated with 10 μl/well of compound diluted in the culture medium. Experiments showing the dose-effect of the compound are carried out on a scale of 1 nM to 100 μM. The concentrations used are the following: 1 nM/10/30/100/300/1000/3000/10,000/100,000 nM. The cells are incubated for 144 h at 37° C., 5% CO2. • Reading: On D6, 10 μL, of cell proliferation reagent WST-1 (Roche ref 1644807) is added to each well. After incubation for 2 to 4 hours at 37° C., 5% CO2, the absorbance at 450 nm is measured by spectrophotometry (Envision, Perkin Elmer). • Results: The experiments are carried out in duplicate and the best compounds are tested twice. […] 4. Measurement of the Disappearance of the Androgen Receptor

androgen receptor = target: T1, androgen receptor (Homo sapiens, UniProt P10275, T878A); assay: Measurement of the disappearance of the androgen receptor (Western blot, LNCaP cells); conditions: 72 hours after treatment
T1 construct: The LNCaP cell type (ATCC, 1740) originating from a prostate carcinoma expressing the androgen receptor; host or cells: LNCaP
T1 sequence (P10275 1-920 T878A): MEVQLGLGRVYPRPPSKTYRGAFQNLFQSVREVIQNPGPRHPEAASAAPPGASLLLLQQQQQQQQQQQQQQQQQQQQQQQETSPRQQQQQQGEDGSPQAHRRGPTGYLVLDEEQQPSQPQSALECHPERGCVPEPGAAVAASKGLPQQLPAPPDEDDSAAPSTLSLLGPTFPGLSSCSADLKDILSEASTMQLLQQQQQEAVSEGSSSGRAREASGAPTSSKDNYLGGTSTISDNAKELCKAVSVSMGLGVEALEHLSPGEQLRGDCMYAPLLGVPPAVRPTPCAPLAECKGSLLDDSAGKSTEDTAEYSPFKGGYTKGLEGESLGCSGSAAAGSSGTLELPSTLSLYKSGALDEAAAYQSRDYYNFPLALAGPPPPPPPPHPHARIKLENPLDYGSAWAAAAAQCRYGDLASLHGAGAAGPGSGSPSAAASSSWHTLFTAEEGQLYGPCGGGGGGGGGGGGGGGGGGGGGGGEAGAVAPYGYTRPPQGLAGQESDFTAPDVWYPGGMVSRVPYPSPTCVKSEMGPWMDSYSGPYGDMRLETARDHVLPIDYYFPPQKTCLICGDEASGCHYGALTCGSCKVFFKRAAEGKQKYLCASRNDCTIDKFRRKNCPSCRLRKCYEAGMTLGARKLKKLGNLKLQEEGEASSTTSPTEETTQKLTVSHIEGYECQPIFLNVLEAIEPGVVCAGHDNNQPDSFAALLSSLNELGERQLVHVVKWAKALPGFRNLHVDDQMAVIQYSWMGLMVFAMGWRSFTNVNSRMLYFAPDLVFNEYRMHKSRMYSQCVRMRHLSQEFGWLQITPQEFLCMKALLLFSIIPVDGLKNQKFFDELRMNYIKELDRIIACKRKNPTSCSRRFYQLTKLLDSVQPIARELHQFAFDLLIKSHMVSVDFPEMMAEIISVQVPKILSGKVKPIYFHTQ
Description: The cells of the LNCaP line are seeded at a rate of 2.5 millions of cells per 10 cm Petri dish in RPMI, 10% of foetal calf serum, 2 mM of glutamine, 100 U/ml of penicillin, 0.1 mg/ml of streptomycin and 0.01M HEPES, 1 mM of sodium pyruvate, 40% of D-glucose. 4 days later, the cells are treated with the compound to be tested. 72 hours after the treatment the cells are lyzed in lysis buffer (50 mM Tris pH 7.4, 150 mM NaCl, 1 mM EDTA, 20 mM NaF, 100 mM Na2VO3, 0.5% of NP40, 1% of Triton X-100, 1 mM EGTA, Pefabloc, protease inhibitor cocktail 11836170001 RocheDiagnostics, Phosphatase inhibitor cocktail set II Calbiochem). The cells are then scrapped and the lysate transferred into QIAshredder tubes (cat No. 79656 Qiagen) for centrifugation at 13,000 rpm for 15 min at 4° C. The supernatant is transferred into QIAshredder tubes for a second centrifugation at 13,000 rpm for 5 min in order to completely eliminate the DNA filaments. […] The loading buffer (sample loading buffer 3×ref 7722 Cell signaling technology) with added 1% beta-mercaptoethanol and 50 mM DTT, is added to the samples which are then heated for 10 min at 90° C. The samples are deposited under a volume of 20 μl on NuPAGE 4-12% Bis-Tris gels (cat No. NP0322BOX, Invitrogen). The migration takes place in MOPS buffer (Invitrogen) and is carried out for 1 hour at 180V. […]

| SMILES | effect on the cell proliferation of LNCaP cultured in medium without steroids (FIG. 1) (LNCaP cells) | IC50 (DU145 cells) [µM] | effect on the protein expression of the androgen receptor (FIGS. 2-4) (androgen receptor) |
| --- | --- | --- | --- |
| CC(=O)Nc1ccc(N2C(=O)N(CCCCCCCCC[S+]([O-])CCCC(F)(F)C(F)(F)F)C(C)(C)C2=O)cc1C(F)(F)F (centres unmarked) [Example 18, N-[4-(4,4-dimethyl-2,5-dioxo-3-{9-[(4,4,5,5,5-pentafluoropentyl)sulphinyl]-nonyl}imidazolidin-1-yl)-2-(trifluoromethyl)phenyl]acetamide] | anti-proliferative activity on the LNCaP cells without an agonist effect | > 10 | reduction in the protein expression of the androgen receptor |
| CN(C)CC(=O)Nc1ccc(N2C(=O)N(CCCCCCCCC[S+]([O-])CCCC(F)(F)C(F)(F)F)C(C)(C)C2=O)cc1C(F)(F)F (centres unmarked) [Example 43a, N-[4-(4,4-dimethyl-2,5-dioxo-3-{9-[(4,4,5,5,5-pentafluoropentyl)sulphinyl]nonyl}imidazolidin-1-yl)-2-(trifluoromethyl)phenyl]-N^2,N^2-dimethylglycinamide] | anti-proliferative activity on the LNCaP cells without an agonist effect |  | reduction in the protein expression of the androgen receptor |
